Experimental data published in ChEMBL document CHEMBL3352773, “Synthesis and evaluation of the 2,4-diaminoquinazoline series as anti-tubercular agents” (Bioorg Med Chem, 2014).
Converted amounts (≈) assume the structure as drawn. The source made the active and inactive calls. The calls are words filed in the database; no cut-off is given here.

Key:
[1] = test system: Mycobacterium tuberculosis; assay: Antituberculosis activity against Mycobacterium tuberculosis H37Rv assessed as complete growth inhibition at 20 uM after 5 days; format: functional; conditions: 120 h
[2] = test system: Mycobacterium tuberculosis; assay: Antituberculosis activity against Mycobacterium tuberculosis H37Rv assessed as complete growth inhibition after 5 days; format: functional; conditions: 120 h
[3] = test system: Mycobacterium tuberculosis; assay: Antituberculosis activity against Mycobacterium tuberculosis H37Rv assessed as complete growth inhibition after 5 days using liquid media; format: functional; conditions: 120 h
[4] = test system: Mycobacterium tuberculosis; assay: Antituberculosis activity against Mycobacterium tuberculosis H37Rv assessed as complete growth inhibition after 5 days using solid media by serial proportion method; format: functional; conditions: 120 h
[5] = test system: Rattus norvegicus; assay: Volume of distribution at steady state in Sprague-Dawley rat at 10 mg/kg, po after 24 hrs; format: ADME, organism-based; parameters: dose 10 mg/kg, route oral; conditions: in vivo
[6] = test system: Rattus norvegicus; assay: AUC in Sprague-Dawley rat at 10 mg/kg, po after 24 hrs; format: ADME, organism-based, Plasma; parameters: time < 24 hr, dose 10 mg/kg, route oral; conditions: in vivo
[7] = Oral bioavailability in Sprague-Dawley rat at 10 mg/kg after 24 hrs; format: ADME, organism-based; conditions: in vivo
[8] = test system: Mycobacterium tuberculosis; assay: Bactericidal activity against Mycobacterium tuberculosis H37Rv under aerobic and replicating condition assessed as reduction in viability at 124 uM measured over 7 days by time kill kinetic study relative to control; format: functional
[9] = test system: Mycobacterium tuberculosis; assay: Bactericidal activity against Mycobacterium tuberculosis H37Rv under non-replicating condition assessed as reduction in viability at 124 uM measured over 7 days by time kill kinetic study relative to control; format: functional
[10] = test system: Mycobacterium tuberculosis; assay: Antituberculosis activity against Mycobacterium tuberculosis H37Rv assessed as complete growth inhibition at 56 uM in presence of hemin; format: functional, organism-based
[11] = test system: Mycobacterium tuberculosis; assay: Antituberculosis activity against Mycobacterium tuberculosis H37Rv assessed as complete growth inhibition at 56 uM in absence of hemin; format: functional, organism-based
[12] = test system: Mycobacterium tuberculosis; assay: Antituberculosis activity against Mycobacterium tuberculosis H37Rv grown in liquid media using glucose as carbon source assessed as growth inhibition; format: functional
[13] = test system: Mycobacterium tuberculosis; assay: Antituberculosis activity against Mycobacterium tuberculosis H37Rv grown in liquid media using palmitate as carbon source assessed as growth inhibition; format: functional
[14] = test system: Mycobacterium tuberculosis; assay: Antituberculosis activity against Mycobacterium tuberculosis H37Rv grown in solid media assessed as growth inhibition by serial proportion method; format: functional

SMILES	inhibition at 20 µM [1]	MIC99 [2]	also measured
Cc1ccc2nc(N3CCCCC3)nc(NCc3ccc(F)cc3)c2c1	99%	–	–
Fc1ccc(CNc2nc(N3CCCCC3)nc3ccccc23)cc1	97%	7.4 µM (≈ 2.49 µg/mL)	–
Fc1ccc(CNc2nc(N3CCCCC3)nc3sccc23)cc1	–	73 µM (≈ 25 µg/mL)	–
O=[N+]([O-])c1cccc2c(NCc3ccc(F)cc3)nc(N3CCCCC3)nc12	< 30%	–	–
CN(C)C1CCN(c2nc(NCc3ccc(F)cc3)c3ccccc3n2)CC1	< 30%	–	–
Fc1ccc(CNc2cc(N3CCCCC3)nc3ccccc23)cc1	98%	–	–
Fc1cccc(CNc2nc(N3CCCCC3)nc3ccccc23)c1	98%	–	–
Nc1ccc(N2CCN(c3nc(NCc4ccc(F)cc4)c4ccccc4n3)CC2)cc1	94%	–	–
c1ccc(CNc2nc(N3CCCCC3)nc3ccccc23)cc1	96%	9.2 µM (≈ 2.93 µg/mL)	–
Clc1ccc(CNc2nc(N3CCCCC3)nc3ccccc23)cc1Cl	98%	–	–
Fc1ccc(CNc2nc(CN3CCCCC3)nc3ccccc23)cc1	< 30%	29 µM (≈ 10.2 µg/mL)	–
Clc1ccc(CNc2nc(N3CCCCC3)nc3ccccc23)c(Cl)c1	98%	–	–
Clc1ccc(Cl)c(CNc2nc(N3CCCCC3)nc3ccccc23)c1	97%	–	–
Cc1cccc2nc(N3CCCCC3)nc(NCc3ccc(F)cc3)c12	98%	–	–
Fc1ccc(CNc2nc(N3CCCCC3)nc3ccccc23)c(F)c1	97%	–	–
Cc1cc(NCc2ccc(F)cc2)nc(N2CCCCC2)n1	< 30%	83 µM (≈ 24.9 µg/mL)	–
Cc1nc(NCc2ccc(F)cc2)c2ccccc2n1	< 30%	94 µM (≈ 25.1 µg/mL)	–
CO[C@H]1/C=C/O[C@@]2(C)Oc3c(C)c(O)c4c(O)c(c(/C=N/N5CCN(C)CC5)c(O)c4c3C2=O)NC(=O)/C(C)=C\C=C\[C@H](C)[C@H](O)[C@@H](C)[C@@H](O)[C@@H](C)[C@H](OC(C)=O)[C@@H]1C [RIFAMPIN]	100%	–	MIC99 [3]: 0.004 µM (≈ 0.00329 µg/mL); MIC99 [4]: 0.013 µM (≈ 0.0107 µg/mL)
c1ccc2c(NCC3CCCCC3)nc(N3CCCCC3)nc2c1	99%	–	–
CC(C)CNc1nc(N2CCCCC2)nc2ccccc12	37%	25 µM (≈ 7.11 µg/mL)	–
Fc1ccc(CNc2nc(N3CCCCC3)nc3c(Cl)cccc23)cc1	< 30%	–	–
Fc1ccc(CNc2nc(N3CCCCC3)nc3[nH]ccc23)cc1	< 30%	–	–

SMILES	inhibition at 20 µM [1]	MIC99 [2]	also measured
Fc1ccccc1CNc1nc(N2CCCCC2)nc2ccccc12	97%	–	–
Fc1ccc(CNc2nc(-c3ccccc3)nc3ccccc23)cc1	< 30%	76 µM (≈ 25 µg/mL)	–
Fc1ccc(CNc2cc(Cc3ccccc3)nc(N3CCCCC3)n2)cc1	84%	27 µM (≈ 10.2 µg/mL)	–
O=C(O)C1CCN(c2nc(NCc3ccc(F)cc3)c3ccccc3n2)CC1	< 30%	–	–
NC1CCN(c2nc(NCc3ccc(F)cc3)c3ccccc3n2)CC1	< 30%	–	–
Fc1ccc(CNc2nc(N3CCCCC3)nc3ccsc23)cc1	< 30%	292 µM (≈ 100 µg/mL)	–
Cn1cnc2c(NCc3ccc(F)cc3)nc(N3CCCCC3)nc21	< 30%	–	–
CC1CCN(c2nc(NCc3ccc(F)cc3)c3ccccc3n2)CC1	97%	–	–
c1ccc2nc(N3CCCCC3)ncc2c1	< 30%	469 µM (≈ 100 µg/mL)	–
Fc1ccc(CNc2nc(C(F)(F)F)nc3ccccc23)cc1	< 30%	–	–
Fc1ccc(COc2nc(N3CCCCC3)nc3ccccc23)cc1	< 30%	296 µM (≈ 99.9 µg/mL)	–
Fc1ccc(CCc2nc(N3CCCCC3)nc3ccccc23)cc1	< 30%	–	–
Fc1ccc(CNc2nc(N3CCNCC3)nc3ccccc23)cc1	< 30%	148 µM (≈ 49.9 µg/mL)	–
Fc1ccc(CNc2nc(N3CCCCC3)nc3[nH]cnc23)cc1	< 30%	–	–
Fc1ccc2c(c1)CCN(c1nc(N3CCCCC3)nc3ccccc13)C2	94%	–	–
Fc1ccc(CNc2nc(N3CCCCC3)nc3ccc(Cl)cc23)cc1	49%	–	–
OCCN(CCO)c1nc(NCc2ccc(F)cc2)c2ccccc2n1	< 30%	–	–
Fc1ccc(CNc2nc(N3CCCCC3)nc3cccc(Cl)c23)cc1	< 30%	–	–
Fc1ccc(CNc2nc(N3CCCCC3)nc3ncccc23)cc1	37%	74 µM (≈ 25 µg/mL)	–
Nc1nc(NCc2ccc(F)cc2)c2ccccc2n1	< 30%	93 µM (≈ 25 µg/mL)	–
Fc1ccc(CNc2ncnc3ccccc23)cc1	< 30%	99 µM (≈ 25.1 µg/mL)	–
COc1ccc(CNc2nc(N3CCCCC3)nc3ccccc23)cc1Cl	98%	–	–

SMILES	inhibition at 20 µM [1]	MIC99 [2]	also measured
CC1CC(C)CN(c2nc(NCc3ccc(F)cc3)c3ccccc3n2)C1 (stereo not given)	< 30%	–	–
c1ccc2c(CNc3nc(N4CCCCC4)nc4ccccc34)cccc2c1	97%	–	–
FC(F)(F)c1ccc(CCNc2nc(N3CCCCC3)nc3ccccc23)cc1	97%	5.7 µM (≈ 2.28 µg/mL)	–
Cc1cnc(N2CCCCC2)nc1NCc1ccc(F)cc1	< 30%	83 µM (≈ 24.9 µg/mL)	–
Clc1ccc(CNc2nc(N3CCCCC3)nc3ccccc23)cc1	99%	–	–
COc1cccc2c(NCc3ccc(F)cc3)nc(N3CCCCC3)nc12	83%	–	–
Fc1ccc(Cn2cnc3c(N4CCCCC4)nc4ccccc4c32)cc1	98%	–	Vdss [5]: 14.2 L/kg; AUC [6]: 27.4 ng·h/mL; bioavailability [7]: 3.4%; MIC99 [3]: 13.8 µM (≈ 4.97 µg/mL); MIC99 [4]: 27.7 µM (≈ 9.98 µg/mL)
Fc1ccc(CNc2nc(N3CCCC3)nc3ccccc23)cc1	97%	31 µM (≈ 9.99 µg/mL)	–
O=C(O)CNC1CCN(c2nc(NCc3ccc(F)cc3)c3ccccc3n2)CC1	< 30%	–	–
FC(F)(F)c1ccc(CNc2nc(N3CCCCC3)nc3ccccc23)cc1	99%	6.6 µM (≈ 2.55 µg/mL)	fold change (FC) [8]: 4; fold change (FC) [9]: 3; Activity [10]: Active; Activity [11]: Active; MIC99 [12]: 28 µM (≈ 10.8 µg/mL); MIC99 [13]: 28 µM (≈ 10.8 µg/mL); MIC99 [14]: 16 µM (≈ 6.18 µg/mL)
Cc1ccc(CNc2nc(N3CCCCC3)nc3ccccc23)cc1	98%	–	–
Fc1ccc(CNc2nc(N3CCCCC3)nc3ccccc23)cc1F	96%	–	–
c1ccc2c(N3CCCCC3)nc(N3CCCCC3)nc2c1	< 30%	–	–
Cc1nc(N2CCCCC2)nc(NCc2ccc(F)cc2)c1C	< 30%	–	–
COc1cc2nc(N3CCCCC3)nc(NCc3ccc(F)cc3)c2cc1OC	92%	25 µM (≈ 9.91 µg/mL)	–
Ic1cccc(CNc2nc(N3CCCCC3)nc3ccccc23)c1	98%	–	–
O=C(O)C(Nc1cc(N2CCCCC2)nc2ccccc12)c1ccc(F)cc1 (stereo not given)	< 30%	–	–
Fc1ccc(CNc2nc(N3CCCCC3)nc3cnccc23)cc1	59%	30 µM (≈ 10.1 µg/mL)	–
COc1ccc(CNc2nc(N3CCCCC3)nc3ccccc23)cc1	97%	–	–
Fc1ccc(CNc2nc(C3CCCCC3)nc3ccccc23)cc1	47%	15 µM (≈ 5.03 µg/mL)	–
OC1CCN(c2nc(NCc3ccc(F)cc3)c3ccccc3n2)CC1	< 30%	–	–
CNc1nc(NCc2ccc(F)cc2)c2ccccc2n1	44%	35 µM (≈ 9.88 µg/mL)	–

SMILES	inhibition at 20 µM [1]	MIC99 [2]	also measured
Nc1ccc(CNc2nc(N3CCCCC3)nc3ccccc23)cc1	< 30%	–	–
Fc1ccc(CNc2nc(N3CCCCC3)ncc2Cc2ccccc2)cc1	68%	26 µM (≈ 9.79 µg/mL)	–
Fc1ccc(CSc2nc(N3CCCCC3)nc3ccccc23)cc1	< 30%	282 µM (≈ 99.7 µg/mL)	–
CNc1nc(N2CCCCC2)nc2ccccc12	< 30%	206 µM (≈ 49.9 µg/mL)	–
Fc1ccc(CNc2nc(N3CCCCC3)nc3cccc(F)c23)cc1	< 30%	–	–
Fc1ccc(CNc2nc(N3CCCCC3)nc3cccnc23)cc1	< 30%	37 µM (≈ 12.5 µg/mL)	–
OCC1CCN(c2nc(NCc3ccc(F)cc3)c3ccccc3n2)CC1	< 30%	–	–
Fc1ccc(CNc2cc(N3CCCCC3)nc3ccnn23)cc1	< 30%	–	–
Fc1ccc(CNc2cc(N3CCCCC3)nc3ncnn23)cc1	< 30%	–	–
Cc1cccc(CNc2nc(N3CCCCC3)nc3ccccc23)c1	99%	–	–
Fc1ccc(CNc2nc(N3Cc4ccccc4C3)nc3ccccc23)cc1	78%	–	–
CN(C)c1nc(NCc2ccc(F)cc2)c2ccccc2n1	40%	34 µM (≈ 10.1 µg/mL)	–
CNC1CCN(c2nc(NCc3ccc(F)cc3)c3ccccc3n2)CC1	33%	–	–
COc1ccc2c(NCc3ccc(F)cc3)nc(N3CCCCC3)nc2c1	74%	–	–
Fc1ccc(CNc2nc(N3CCCCC3)nc3cc(Cl)ccc23)cc1	51%	–	–
O=C(O)CC1CCCCN1c1nc(NCc2ccc(F)cc2)c2ccccc2n1 (stereo not given)	< 30%	–	–
COc1ccc2nc(N3CCCCC3)nc(NCc3ccc(F)cc3)c2c1	97%	–	–
Fc1ccc(Nc2nc(N3CCCCC3)nc3ccccc23)cc1	< 30%	39 µM (≈ 12.6 µg/mL)	–
OCC(Nc1cc(N2CCCCC2)nc2ccccc12)c1ccc(F)cc1 (stereo not given)	55%	–	–
FC(F)(F)Oc1ccc(CNc2nc(N3CCCCC3)nc3ccccc23)cc1	95%	–	–
Cn1ccc2c(NCc3ccc(F)cc3)nc(N3CCCCC3)nc21	< 30%	–	–
